PubChem BioAssay (NCI)
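A five-concentration, 48-hour dose response in 96-well plates underlies each endpoint, interpolated linearly between surrounding concentrations. The concentration for full growth arrest is given as TGI.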

Assays:
Assay in all cases: DTP human tumour cell line panel, 48 h
[1] = system: 786-0 renal
[2] = system: A498 renal
[3] = system: A549 NSCLC
[4] = system: ACHN renal
[5] = system: CCRF-CEM leukemia
[6] = system: COLO 205 colon
[7] = system: DLD-1 colon
[8] = system: DMS 114 small cell lung
[9] = system: DMS 273 small cell lung
[10] = system: EKVX NSCLC
[11] = system: HCC-2998 colon
[12] = system: HCT-116 colon
[13] = system: HCT-15 colon
[14] = system: HL-60(TB) leukemia
[15] = system: HOP-18 NSCLC
[16] = system: HOP-62 NSCLC
[17] = system: HOP-92 NSCLC
[18] = system: HT29 colon
[19] = system: IGROV1 ovarian
[20] = system: KM12 colon
[21] = system: KM20L2 colon
[22] = system: LOX IMVI melanoma
[23] = system: LXFL 529 NSCLC
[24] = system: M14 melanoma
[25] = system: M19-MEL melanoma
[26] = system: MALME-3M melanoma
[27] = system: NCI-H226 lung
[28] = system: NCI-H23 lung
[29] = system: NCI-H460 lung
[30] = system: NCI-H522 lung
[31] = system: OVCAR-3 ovarian
[32] = system: OVCAR-4 ovarian
[33] = system: OVCAR-5 ovarian
[34] = system: OVCAR-8 ovarian
[35] = system: RXF 393 renal
[36] = system: SF-268 CNS
[37] = system: SF-295 CNS
[38] = system: SF-539 CNS
[39] = system: SK-MEL-2 melanoma
[40] = system: SK-MEL-28 melanoma
[41] = system: SK-MEL-5 melanoma
[42] = system: SK-OV-3 ovarian
[43] = system: SN12C renal
[44] = system: SNB-19 CNS
[45] = system: SNB-75 CNS
[46] = system: SNB-78 CNS
[47] = system: SW-620 colon
[48] = system: TK-10 renal
[49] = system: U251 CNS
[50] = system: UACC-257 melanoma
[51] = system: UACC-62 melanoma
[52] = system: UO-31 renal
[53] = system: XF 498 CNS

Measured: TGI

CCCCCCCCCCCCCC(=O)NCC(OCC)OCC
> 100 µM: [1] | [2] | [3] | [4] | [5] | [6] | [7] | [8] | [9] | [10] | [11] | [12] | [13] | [14] | [15] | [16] | [17] | [18] | [19] | [20] | [21] | [22] | [23] | [24] | [25] | [26] | [27] | [28] | [29] | [30] | [31] | [32] | [33] | [34] | [35] | [36] | [37] | [38] | [39] | [40] | [41] | [42] | [43] | [44] | [45] | [46] | [47] | [48] | [49] | [50] | [51] | [52] | [53]
